“Also recorded” adds a separate entry of the source.
How the values were obtained:
Assay type in all cases: cell-based, human
naive hPSC aggregates = test: Induction of blastoids and trophospheres from naive hPSC aggregates in microwell arrays (yield counted by morphology); settings: for effect on blastoid formation / yield of blastoids: naive hPSC aggregates in PALY medium complemented with the molecule every day, 0 to 96 hours; for morphology of hPSC aggregates upon stimulation: stimulation of hPSC aggregates with LPA or NAEPA; for formation of blastoids versus trophospheres: 3 μM SC144 in PALLY medium for 4 days (0 to 96 hours)
Procedure: Naive hPSCs or primed hPSCs cultures were treated with Accutase (Biozym, B423201) at 37° C. for 5 min, followed by gentle mechanical dissociation with a pipette. After centrifugation, the cell pellet was resuspended in PXGL medium, supplemented with Y-27632 (10 μM, MedChemExpress, HY-10583). To exclude MEF, the cell suspension was transferred onto gelatin coated plates and incubated at 37° C. for 70 min. After MEF exclusion, the cell number was determined using a Countess™ automated cell counter (Thermo Fisher Scientific) and Trypan Blue staining to assess cell viability. The cells were then resuspended in N2B27 media containing 10 μM Y-27632 (aggregation medium) and 3.0×10^4 cells were seeded onto a microwell array included into a well of a 96-well plate. The cells were allowed to form aggregates inside the microwell for a period ranging from 0 to 24 hours depending on the cell lines and based on their propensity for aggregation. Subsequently, the aggregation medium was replaced with PALLY medium-N2B27 supplemented with PD0325901 (1 μM), A 83-01 (1 μM, MedChemExpress, HY-10432), hLIF (10 ng/ml), 1-Oleoyl lysophosphatidic acid sodium salt (LPA) (500 nM, Tocris, 3854) and Y27632 (10 μM). The PALLY medium was refreshed every 24 hours. After 48 hours, the PALLY medium was replaced with N2B27 medium containing 500 nM LPA and 10 μM Y-27632. At 96 hours, a blastoid is defined based on morphological similarity to B6 staged human blastocyst, as a structure composed of a monolayered cyst with an overall diameter of 150-250 μm comprising one inner cell cluster. We also verified that, beyond the morphology, blastoids form analogs of the three blastocyst cell lineages in the sequential and timely manner of blastocyst development. […] The effect of LPA, NAEPA (Sigma-Aldrich, N0912) and Verteporfin (Selleck Chemicals Llc, S1786) on the yield of blastoid formation was assessed by culturing naive hPSC aggregates in PALY medium complemented with molecules added every day from 0 to 96 hours. The Verteporfin treatment was executed without exposure to the light. The effect of the aPKC inhibitor CRT0103390 (Gift from the laboratory of Kathy Niakan) was assessed by culturing naive hPSC aggregates in PALLY medium complemented with 2 μM CRT0103390 every day from 0 to 96 hours. The formation of trophospheres was induced by culturing naive hPSC aggregates in PALLY medium complemented with 2 μM XMU-MP-1 (Med Chem Express, HY-100526) or 3 μM SC-144 (Axon, 2324) every day from 0 to 96 hours. The BSA concentration was titrated within the range of 0-0.3% for individual cell lines used for the formation of the blastoids and trophospheres.
The phase contrast images were acquired using Thermo Fisher scientific EVOS cell imaging system and inverted wide field microscope Axio VertA1. The number of blastoids or cavitated structures were counted manually for each well. After 96 hours, a blastoid is defined based on the morphological parameters as described in previous sections. The fluorescent images and timelapse images were acquired using Olympus IX83 microscope with Yokogawa W1 spinning disk (Software: CellSense 2.3; camera: Hamamatsu Orca Flash 4.0) or Nikon Eclipse Ti E inverted microscope, equipped with a Yokogawa W1 spinning disc (Software: Visiview 4.5.0.7; camera: Andor Ixon Ultra 888 EMCCD). The confocal images were analyzed and display images were exported using FIJI 1.53k or Bitplane Imaris 9.7.0 softwares. For cell counting, Bitplane Imaris software was used. Cell count parameters were set for size and fluorescence strength of voxels and then overall cell count data was obtained for each image using Imaris's spot function. Note that large cavities in blastoids increase the depth of the imaging field causing poor signal from deeply located cells. Therefore, our counting data in FIG. 8H could be underrepresented values, particularly in the case of trophectoderm cells. The quantification of the percentage of blastoids forming the NR2F2 axis was done manually. […]

[1] = test system: Open Face Endometrial Layer (OFEL); test: In vitro implantation assay: attachment of blastoids or trophospheres onto OFELs; settings: for potential of endometrial cells to interact with human blastoids: EPC stimulation combined with the Wnt inhibitor
Procedure: (§1) Endometrial organoids were passaged as described in the previous section. The dissociated cells were resuspended in Matrigel supplemented with Y-27632 (10 μM), cell suspension was deposited in 48-well plates and were cultured in endometrial expansion medium for 2 days. The organoids were stimulated first with E2 (10 nM, Sigma-Aldrich, E2758) for 2 days, followed by the mixture of E2 (10 nM), P4 (1 μM, Sigma-Aldrich, P8783), and CAMP (250 μM, Biolog, B 007) with or without XAV939 (10 µM) (EPC or EPCX respectively) for 4 days. For OFELs culture, organoids were recovered from the matrigel droplets with ice-cold DMEM/F12 and mechanical pipetting. The organoids were dissociated using TrypLE and mechanically triturated to generate single cells and seeded at the density of 3 to 3.5×10^4 cells per well into a 96-well glass bottom plate (Cellvis, P96-1.5H-N) and cultured for 2-3 days with stimulation. For contraceptive treatment, levonorgestrel (LNG) (10 μM, Sigma-Aldrich, PHR1850) was added every day to the medium two days after hormonal stimulation and continued until the end of experiment.
Confluent OFELs were prepared for the implantation assay at least 2 hours prior to the deposition of blastoids, trophospheres, naive hPSCs or hTSCs aggregates by washing the OFEL two times with DMEM/F12 and adding IVC medium (Xiang, L. et al. Nature 577, 537-542 (2020)). Structures were then transferred onto the OFELs using a mouth pipette under an inverted microscope. After 24-48 hours, the medium was removed, the well was washed with PBS, fixed using 4% formaldehyde for 30 minutes at room temperature and subsequently processed for immunofluorescence staining. The percentage of attached structures was reported as the percentage of total transferred structures.

[2] = test system: endometrial cells (open-faced endometrial layer, OFEL); test: qRT-PCR of window-of-implantation markers in endometrial cells (OFELs); settings: for expression of the gene PAEP (marker of the WOI): endometrial cells, Wnt inhibition
Procedure: as §1
RNA was extracted using the RNeasy mini kit (Qiagen, 74106) and cDNA synthesis was performed using the Superscript III (Invitrogen, 18080093) enzyme. qPCR reactions were performed using GoTaq® qPCR Master Mix (Promega, A6001) on CFX384 Touch Real-Time PCR Detection System (Bio-rad). Quantification was performed using Microsoft Office Excel by applying the comparative Cycle threshold (Ct) method. Relative expression levels were normalized to GAPDH.

CN1C(=O)c2sccc2N(C)c2nc(Nc3ccc(S(N)(=O)=O)cc3)ncc21 [XMU-MP-1]
formation of trophospheres (naive hPSC aggregates; 2 μM XMU-MP-1 in PALLY medium for 4 days (0 to 96 hours)): results in the formation of trophospheres; also recorded: induces the formation of trophospheres with limited or no epiblast-like cells and hypoblast-like cells; also recorded: yielded trophospheres
attachment of trophospheres to stimulated endometrial cells (OFELs) ([1]; trophospheres formed using 2 μM XMU-MP-1): fail to attach and invade stimulated endometrial cells; also recorded: largely fail to attach and to invade the endometrial layer; also recorded: failed to attach to OFELs

Cc1ccc(/C=N/NC(=O)c2ccccc2Oc2ccccc2)o1 [PNU-74654]
potential of endometrial cells to interact with human blastoids [1]: increases the potential of endometrial cells to interact with human blastoids

1-Oleoyl lysophosphatidic acid sodium salt [LPA]
effect on blastoid formation / yield of blastoids (naive hPSC aggregates; sodium salt): increases; also recorded: significantly improved efficiency; also recorded: enhanced blastoid formation
morphology of hPSC aggregates upon stimulation (naive hPSC aggregates): leads to the transition from a solid aggregate of cells to a cystic structure including a single fluid-filled cavity

Oc1nc(-c2ccc(C(F)(F)F)cc2)nc2c1CSCC2 [XAV939]
expression of PAEP, SPP1, LIF and DPP4 (RTqPCR) ([2]; endometrial cells cultured with XAV939): increases the expression of PAEP, SPP1, LIF and DPP4
expression of the gene PAEP (marker of the WOI) [2]: increase the expression of the gene PAEP
potential of endometrial cells to interact with human blastoids [1]: increases the potential of endometrial cells to interact with human blastoids

NC(=O)c1ccc(-c2nc(-c3ccc4c(c3)OCO4)c(-c3ccccn3)[nH]2)cc1 [SB431542]
blastoid formation with alternative TGF-b inhibitor (naive hPSC aggregates; 1 μM SB431542 for 4 days in combination with PLLY): also work

Cn1ncnc2c(=O)n(C)c(=O)nc1-2 [PKF118-310]
expression of the gene PAEP (marker of the WOI) [2]: increase the expression of the gene PAEP

O=C(NNc1nc2cc(F)ccc2n2cccc12)c1cnccn1 [SC144]
formation of blastoids versus trophospheres (naive hPSC aggregates): a decrease in the formation of blastoids and an increase in the formation of trophospheres; also recorded: induces the formation of trophospheres with limited or no epiblast-like cells and hypoblast-like cells; also recorded: yielded trophospheres
formation of blastoids versus trophospheres (naive hPSC aggregates; listed as SC-144): induced the formation of mono-layer cavitated aggregate that does not form an inner cluster of Epi-/Hypo-like cells
maturation of lineage specification of outer trophectoderm cells (naive hPSC aggregates; SC-144 treatment): compromised
attachment of trophospheres to stimulated endometrial cells (OFELs) ([1]; trophospheres formed using 3 μM SC144): fail to attach and invade stimulated endometrial cells; also recorded: largely fail to attach and to invade the endometrial layer; also recorded: failed to attach to OFELs

N-[2-(phosphonooxy)ethyl]-9Z-octadecenamide [NAEPA]
effect on blastoid formation / yield of blastoids (naive hPSC aggregates): increases; also recorded: enhanced blastoid formation
morphology of hPSC aggregates upon stimulation (naive hPSC aggregates): leads to the transition from a solid aggregate of cells to a cystic structure including a single fluid-filled cavity

Verteporfin
formation of a cavity (naive hPSC aggregates; aggregate of hPSCs treated with Verteporfin, 1 μM): totally prevents the formation of a cavity
effect on blastoid formation / yield of blastoids (naive hPSC aggregates): decreases; also recorded: prevented blastoid formation

Cc1ccc2nc(NC(=O)CSc3nc4c(c(=O)n3-c3ccccc3)SCC4)sc2c1 [IWP-2]
potential of endometrial cells to interact with human blastoids [1]: increases the potential of endometrial cells to interact with human blastoids

LIF: leukemia inhibitory factor, STAT3 agonist
blastoid formation efficiency versus LIF concentration (naive hPSC aggregates; dose dependent effect of LIF): blastoid formation efficiency increased with LIF concentration

Reference: patent publication US20240400998A1, “BLASTOCYST-LIKE CELL AGGREGATE AND METHODS” (IMBA - INSTITUT FÜR MOLEKULARE BIOTECHNOLOGIE GMBH, priority 2021, published 2024)
